Converted amounts (≈) assume the structure as drawn.
system: M. tuberculosis H37Rv growth inhibition; assay: Mycobacterium tuberculosis H37Rv growth inhibition, putative kinase inhibitor library, confirmatory dose response (AID 2842);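 further: bacteria incubated one week before Alamar blue readout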

Compared with `Cc1ccc(C)c(-c2nnc(NC(=O)c3ccccc3)o2)c1`, `Cc1ccc(C)c(-c2nnc(NC(=O)c3ccccc3[N+](=O)[O-])o2)c1` is 5-fold lower in IC90: 24.5 µg/mL (≈ 83.7 µM) for the first, 4.88 µg/mL (≈ 14.4 µM) for the second.

`COc1ccc(Nc2nc(Nc3cccc(OC)c3)nc3nccnc23)cc1` and `Cc1ccc(Nc2nc(N3CCN(Cc4ccccc4)CC3)nc3nccnc23)cc1` are within 1.5-fold of each other in IC90: 9.86 µg/mL (≈ 26.3 µM) for the first, 7.94 µg/mL (≈ 19.3 µM) for the second.

First: COc1cccc2sc(Nc3nnc(-c4cccs4)o3)nc12
Second: Fc1cccc2sc(Nc3nnc(-c4ccccc4Cl)o3)nc12
The IC90 of the first is 5-fold lower: 3.36 µg/mL (≈ 10.2 µM) for the first, 16.8 µg/mL (≈ 48.3 µM) for the second.

First: COc1ccc(C)c2sc(N(CCCn3ccnc3)C(=O)c3cccs3)nc12
Second: COc1ccc(OC)c2sc(N(CCCn3ccnc3)C(=O)c3ccc(F)cc3)nc12
The IC90 of the first is 5.6-fold lower: 2.4 µg/mL (≈ 5.82 µM) for the first, 13.5 µg/mL (≈ 30.6 µM) for the second.

First: CCOc1ccc2c(c1)c1nnc(-c3ccc(OC)cc3)c-1cn2Cc1cccc(C)c1
Second: Cc1ccc2c(c1)c1nnc(-c3ccc4c(c3)OCO4)c-1cn2Cc1cccc(F)c1
The IC90 of the first is 6.1-fold higher: 20.7 µg/mL (≈ 48.9 µM) for the first, 3.39 µg/mL (≈ 8.24 µM) for the second.

Going from `N#CC1=C(N)OC2=C(C(=O)CC(c3ccccc3)C2)C1C1CCCCC1` (configuration not stated) to `O=C(Nc1nnc(-c2ccco2)o1)C1CCCCC1`, the IC90 rises from 7.8 µg/mL (≈ 22.4 µM) to 50.4 µg/mL (≈ 193 µM) (6.5-fold).

Going from `Cc1ccc(-c2nnc(NC(=O)c3ccc([N+](=O)[O-])s3)o2)c(C)c1` to `Cc1ccc(C)c(-c2nnc(NC(=O)c3cccc([N+](=O)[O-])c3)o2)c1`, the IC90 rises from 0.61 µg/mL (≈ 1.77 µM) to 29.6 µg/mL (≈ 87.4 µM) (49-fold).

Going from `Cc1ccc(C(=O)Nc2sc3c(c2C(N)=O)CCN(C)C3)cc1C` to `N#Cc1c(NC(=O)c2cc(Cl)ccc2Cl)sc2c1CCN(Cc1ccccc1)C2`, the IC90 falls from 18.8 µg/mL (≈ 54.7 µM) to 12.3 µg/mL (≈ 27.8 µM) (1.5-fold).

Going from `O=C1N/C(=N\N=C\c2ccccc2O)SC1Cc1ccc(F)cc1` (configuration not stated) to `O=C1N/C(=N\N=C\c2ccccc2O)SC1Cc1cc(Cl)ccc1Cl` (configuration not stated), the IC90 rises from under 0.2 µg/mL to 4.52 µg/mL (≈ 11.5 µM).

Compared with `O=C(Nc1nnc(-c2ccc3c(c2)CCCC3)o1)c1ccccc1Br`, `O=C(CCOc1ccccc1)Nc1nnc(-c2ccc3c(c2)CCCC3)o1` is higher in IC90: under 0.2 µg/mL for the first, 18.1 µg/mL (≈ 49.8 µM) for the second.

First: Cc1ccc(-c2nnc(NC(=O)CCSc3ccccc3)o2)c(C)c1
Second: Cc1ccc(-c2nnc(NC(=O)c3ccccc3C)o2)c(C)c1
The IC90 of the first is 6-fold higher: 15.1 µg/mL (≈ 42.7 µM) for the first, 2.52 µg/mL (≈ 8.2 µM) for the second.

Compared with `COc1cc(/C=C(\C#N)c2nc(-c3ccc4c(c3)OCO4)cs2)cc([N+](=O)[O-])c1O`, `COc1cc(/C=C(\C#N)c2nc(-c3ccc(C)cc3)cs2)cc([N+](=O)[O-])c1O` is 12-fold lower in IC90: 37.7 µg/mL (≈ 89.2 µM) for the first, 3.26 µg/mL (≈ 8.29 µM) for the second.

`N=C1SC(c2ccccc2)C(=O)N1c1nccs1` (configuration not stated) and `O=C(CCc1ccccc1)Nc1nnc(-c2cccs2)o1` are within 1.5-fold of each other in IC90: 30.1 µg/mL (≈ 109 µM) for the first, 42.8 µg/mL (≈ 143 µM) for the second.

First: O=C(Nc1nnc(-c2ccc3c(c2)CCCC3)o1)c1ccc([N+](=O)[O-])s1
Second: CCS(=O)(=O)c1cccc(C(=O)Nc2nnc(-c3ccc4c(c3)CCCC4)o2)c1
The IC90 of the first is 24-fold lower: 0.68 µg/mL (≈ 1.84 µM) for the first, 16.3 µg/mL (≈ 39.7 µM) for the second.

Going from `Cc1cc(C)c2sc(NNC(=O)c3cc(-c4cccs4)nc4ccccc34)nc2c1` to `O=C(Nc1nnc(-c2cc(Cl)ccc2Cl)o1)c1cc(-c2ccccc2)nc2ccccc12`, the IC90 falls from 25.6 µg/mL (≈ 59.5 µM) to 1.96 µg/mL (≈ 4.25 µM) (13-fold).

First: CSc1ccccc1-c1nnc(NC(=O)c2cc(Cl)sc2Cl)o1
Second: O=C(Nc1nnc(C2=COCCO2)o1)c1cc(Cl)sc1Cl
The IC90 of the first is 2.9-fold lower: 11.7 µg/mL (≈ 30.2 µM) for the first, 34.1 µg/mL (≈ 98 µM) for the second.

`COc1ccc(OCc2nc(C#N)c(NCc3ccc(C)cc3)o2)cc1` and `COc1cccc(NC(=O)c2ccc(COc3cccc(C)c3)o2)c1` are within 1.5-fold of each other in IC90: 12.1 µg/mL (≈ 34.7 µM) for the first, 11.7 µg/mL (≈ 34.7 µM) for the second.

First: O=C1CN(C(=O)c2cccc3ccccc23)C(c2ccc(F)cc2)c2cc(Br)ccc2N1 (configuration not stated)
Second: O=C(Cc1cccc2ccccc12)Nc1nnc(-c2ccc(F)cc2)o1
The IC90 of the first is 2.2-fold lower: 10.2 µg/mL (≈ 20.8 µM) for the first, 22.4 µg/mL (≈ 64.4 µM) for the second.

Going from `COc1ccc(-c2nnc(NC(=O)c3cc4ccccc4cc3OC)o2)cc1` to `O=C(Nc1nnc(-c2ccc(Br)cc2)o1)c1cc(Cl)ccc1Cl`, the IC90 falls from 26.3 µg/mL (≈ 70.2 µM) to 2.67 µg/mL (≈ 6.46 µM) (9.9-fold).

Compared with `Cc1cc(C)c2sc(N3CCCC3)nc2c1`, `c1c2c(cc3sc(N4CCCC4)nc13)OCO2` is lower in IC90: 1.75 µg/mL (≈ 7.53 µM) for the first, under 0.2 µg/mL for the second.

Going from `CC(=O)Oc1cc(C)cc2oc(=O)c3c(c12)CCCC3` to `COc1cc(C(=O)Nc2nnc(-c3ccc4c(c3)CCCC4)o2)cc(OC)c1OC`, the IC90 rises from 6.79 µg/mL (≈ 24.9 µM) to 44.2 µg/mL (≈ 108 µM) (6.5-fold).

`CCOC(=O)C(C)Sc1ncnc2c1cnn2-c1ccc(F)cc1` (configuration not stated) and `COc1cccc2sc(N(CCCn3ccnc3)C(=O)Cc3ccc(F)cc3)nc12` are within 1.5-fold of each other in IC90: 4.73 µg/mL (≈ 13.7 µM) for the first, 3.48 µg/mL (≈ 8.2 µM) for the second.

`O=C(CCc1ccccc1)Nc1nnc(-c2cc(Cl)ccc2Cl)o1` and `O=C(Nc1nnc(C2=COCCO2)o1)c1ccc(Cc2ccccc2)cc1` are within 1.5-fold of each other in IC90: 26.6 µg/mL (≈ 73.4 µM) for the first, 28.1 µg/mL (≈ 77.4 µM) for the second.

`COc1ccccc1-c1cnn2c(Nc3ccc(C)c(C)c3)cc(C)nc12` and `CCc1cccc2sc(N(CCCn3ccnc3)C(=O)c3ccc(OC)c(OC)c3)nc12` are within 1.5-fold of each other in IC90: 14.4 µg/mL (≈ 40.3 µM) for the first, 13.9 µg/mL (≈ 30.9 µM) for the second.

First: Cc1ccc(-c2nnc(NC(=O)c3ccc(S(=O)(=O)N4CCC(C)CC4)cc3)o2)c(C)c1
Second: CC1CCN(S(=O)(=O)c2ccc(C(=O)NNc3nc4c(Cl)cccc4s3)cc2)CC1
The IC90 of the first is 1.9-fold higher: 46.7 µg/mL (≈ 103 µM) for the first, 24.7 µg/mL (≈ 53.1 µM) for the second.

`Cc1ccc(-c2[nH]c3ccccc3c2SCCNC(=O)c2cc3ccccc3oc2=O)cc1` and `COC(=O)c1c(NC(=O)Cc2cccc3ccccc23)sc2c1CC(C)(C)NC2(C)C` are within 1.5-fold of each other in IC90: 4 µg/mL (≈ 8.8 µM) for the first, 3.73 µg/mL (≈ 8.54 µM) for the second.

Compared with `O=C(CSc1nnc(-c2cccnc2)o1)N1CCC(Cc2ccccc2)CC1`, `O=C(Nc1nnc(-c2ccco2)o1)c1ccc([N+](=O)[O-])cc1` is 41-fold higher in IC90: 0.87 µg/mL (≈ 2.21 µM) for the first, 35.8 µg/mL (≈ 119 µM) for the second.

`Nc1[nH]nc2nc(N3CCCCC3)nc(-c3ccc4c(c3)OCO4)c12` and `O=C(Nc1nnc(-c2ccc(Cl)s2)o1)c1ccc(Br)s1` are the same in IC90: 11.6 µg/mL (≈ 34.3 µM) for the first, 11.6 µg/mL (≈ 29.8 µM) for the second.

`O=C(c1ccco1)N(CCCn1ccnc1)c1nc2c(F)cc(F)cc2s1` gave an IC90 of 0.75 µg/mL (≈ 1.93 µM).
